Measured values as given in patent US20230183193A1, “4-DIFLUOROMETHYL BENZOYL AMIDES WITH HERBICIDAL ACTION” (BAYER CROPSCIENCE AKTIENGESELLSCHAFT, priority 2017, published 2023).

What was measured:
Format in all cases: in vivo
Abutilon theophrasti [1] = assay: Pre-emergence herbicidal action, ABUTH; details: dosage 320 g/ha, scored visually after 3 weeks vs untreated controls
Procedure, shortened: (§1)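 Percent herbicidal activity rated by eye 3 weeks after pre-emergence soil-surface application, compared with untreated pots. Seeds sat under sandy loam; sprays carried 0.2% wetting agent.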

Alopecurus myosuroides [2] = assay: Pre-emergence herbicidal action, ALOMY; details: dosage 320 g/ha, scored visually after 3 weeks vs untreated controls
Procedure, shortened: as §1

Amaranthus retroflexus [3] = assay: Pre-emergence herbicidal action, AMARE; details: dosage 320 g/ha, scored visually after 3 weeks vs untreated controls
Procedure, shortened: as §1

Avena fatua [4] = assay: Pre-emergence herbicidal action, AVEFA; details: dosage 320 g/ha, scored visually after 3 weeks vs untreated controls
Procedure, shortened: as §1

Cyperus serotinus = assay: Pre-emergence herbicidal action, CYPES; details: dosage 320 g/ha, scored visually after 3 weeks vs untreated controls
Procedure, shortened: as §1

Matricaria inodora = assay: Pre-emergence herbicidal action, MATIN; details: dosage 320 g/ha, scored visually after 3 weeks vs untreated controls
Procedure, shortened: as §1

Setaria viridis [5] = assay: Pre-emergence herbicidal action, SETVI; details: dosage 320 g/ha, scored visually after 3 weeks vs untreated controls
Procedure, shortened: as §1

Stellaria media [6] = assay: Pre-emergence herbicidal action, STEME; details: dosage 320 g/ha, scored visually after 3 weeks vs untreated controls
Procedure, shortened: as §1

Viola tricolor [7] = assay: Pre-emergence herbicidal action, VIOTR; details: dosage 320 g/ha, scored visually after 3 weeks vs untreated controls
Procedure, shortened: as §1

Abutilon theophrasti [8] = assay: Post-emergence herbicidal action, ABUTH; details: 80 g/ha, Table D
Procedure, shortened: (§2)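 Greenhouse-grown weeds in sandy loam, treated at the one-leaf stage 2 to 3 weeks after sowing with WP or EC formulations sprayed as aqueous suspension/emulsion at 600 to […] water plus 0.2% wetting agent. Visual scoring after about 3 weeks versus untreated controls, 0% (like control) to 100% (plants dead).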

Alopecurus myosuroides [9] = assay: Post-emergence herbicidal action, ALOMY; details: 80 g/ha, Table C
Procedure, shortened: as §2

Amaranthus retroflexus [10] = assay: Post-emergence herbicidal action, AMARE; details: 80 g/ha, Table D
Procedure, shortened: as §2

Avena fatua [11] = assay: Post-emergence herbicidal action, AVEFA; details: 80 g/ha, Table C
Procedure, shortened: as §2

Pharbitis purpureum = assay: Post-emergence herbicidal action, PHBPU; details: 80 g/ha, Table D
Procedure, shortened: as §2

Setaria viridis [12] = assay: Post-emergence herbicidal action, SETVI; details: 80 g/ha, Table C
Procedure, shortened: as §2

Stellaria media [13] = assay: Post-emergence herbicidal action, STEME; details: 80 g/ha, Table D
Procedure, shortened: as §2

Viola tricolor [14] = assay: Post-emergence herbicidal action, VIOTR; details: 80 g/ha, Table D
Procedure, shortened: as §2

ECHCG = assay: Post-emergence herbicidal action, ECHCG; details: 80 g/ha, Table C
Procedure, shortened: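 Weed and crop plants grown in sandy loam in the greenhouse, treated at the one-leaf stage 2–3 weeks after sowing. Damage scored visually after about 3 weeks vs untreated controls (0% = control, 100% = dead).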

CCn1nnnc1NC(=O)c1ccc(C(F)F)c(SC)c1F [Example 2-37]
herbicidal activity ABUTH (Abutilon theophrasti [1]): 100% | herbicidal activity ALOMY (Alopecurus myosuroides [2]): 90% | herbicidal activity AMARE (Amaranthus retroflexus [3]): 100% | herbicidal activity AVEFA (Avena fatua [4]): 100% | herbicidal activity CYPES (Cyperus serotinus): 80% | herbicidal activity MATIN (Matricaria inodora): 100% | herbicidal activity SETVI (Setaria viridis [5]): 100% | Herbicidal activity STEME (Stellaria media [6]): 100% | herbicidal activity VIOTR (Viola tricolor [7]): 100% | herbicidal activity ABUTH (Abutilon theophrasti [8]): 100% | herbicidal activity ALOMY (Alopecurus myosuroides [9]): 80% | herbicidal activity AMARE (Amaranthus retroflexus [10]): 100% | herbicidal activity AVEFA (Avena fatua [11]): 90% | Herbicidal activity PHBPU (Pharbitis purpureum): 100% | herbicidal activity SETVI (Setaria viridis [12]): 100% | Herbicidal activity STEME (Stellaria media [13]): 100% | herbicidal activity VIOTR (Viola tricolor [14]): 90% | Herbicidal activity ECHCG (ECHCG): 100%

CCn1nnnc1NC(=O)c1ccc(C(F)F)c([S+](C)[O-])c1F (stereo not drawn) [Example 2-38]
herbicidal activity ABUTH (Abutilon theophrasti [1]): 100% | herbicidal activity ALOMY (Alopecurus myosuroides [2]): 100% | herbicidal activity AMARE (Amaranthus retroflexus [3]): 100% | herbicidal activity AVEFA (Avena fatua [4]): 100% | herbicidal activity CYPES (Cyperus serotinus): 100% | herbicidal activity MATIN (Matricaria inodora): 100% | herbicidal activity SETVI (Setaria viridis [5]): 100% | Herbicidal activity STEME (Stellaria media [6]): 100% | herbicidal activity VIOTR (Viola tricolor [7]): 100% | herbicidal activity ABUTH (Abutilon theophrasti [8]): 90% | herbicidal activity ALOMY (Alopecurus myosuroides [9]): 90% | herbicidal activity AMARE (Amaranthus retroflexus [10]): 100% | herbicidal activity AVEFA (Avena fatua [11]): 90% | Herbicidal activity PHBPU (Pharbitis purpureum): 90% | herbicidal activity SETVI (Setaria viridis [12]): 100% | Herbicidal activity STEME (Stellaria media [13]): 100% | herbicidal activity VIOTR (Viola tricolor [14]): 100% | Herbicidal activity ECHCG (ECHCG): 100%

CCn1nnnc1NC(=O)c1ccc(C(F)F)c([S+]([O-])CC)c1F (stereo not drawn) [Example 2-41]
herbicidal activity ABUTH (Abutilon theophrasti [1]): 100% | herbicidal activity ALOMY (Alopecurus myosuroides [2]): 100% | herbicidal activity AMARE (Amaranthus retroflexus [3]): 100% | herbicidal activity AVEFA (Avena fatua [4]): 100% | herbicidal activity CYPES (Cyperus serotinus): 90% | herbicidal activity MATIN (Matricaria inodora): 100% | herbicidal activity SETVI (Setaria viridis [5]): 100% | Herbicidal activity STEME (Stellaria media [6]): 100% | herbicidal activity VIOTR (Viola tricolor [7]): 100% | herbicidal activity ABUTH (Abutilon theophrasti [8]): 100% | herbicidal activity ALOMY (Alopecurus myosuroides [9]): 80% | herbicidal activity AMARE (Amaranthus retroflexus [10]): 90% | herbicidal activity AVEFA (Avena fatua [11]): 90% | Herbicidal activity PHBPU (Pharbitis purpureum): 90% | herbicidal activity SETVI (Setaria viridis [12]): 100% | Herbicidal activity STEME (Stellaria media [13]): 100% | herbicidal activity VIOTR (Viola tricolor [14]): 100% | Herbicidal activity ECHCG (ECHCG): 100%

CCn1nnnc1NC(=O)c1ccc(C(F)F)c(SC)c1Cl [Example 2-49]
herbicidal activity ABUTH (Abutilon theophrasti [1]): 100% | herbicidal activity ALOMY (Alopecurus myosuroides [2]): 100% | herbicidal activity AMARE (Amaranthus retroflexus [3]): 100% | herbicidal activity AVEFA (Avena fatua [4]): 100% | herbicidal activity CYPES (Cyperus serotinus): 90% | herbicidal activity MATIN (Matricaria inodora): 100% | herbicidal activity SETVI (Setaria viridis [5]): 100% | Herbicidal activity STEME (Stellaria media [6]): 90% | herbicidal activity VIOTR (Viola tricolor [7]): 100% | herbicidal activity ABUTH (Abutilon theophrasti [8]): 100% | herbicidal activity ALOMY (Alopecurus myosuroides [9]): 100% | herbicidal activity AMARE (Amaranthus retroflexus [10]): 100% | herbicidal activity AVEFA (Avena fatua [11]): 100% | Herbicidal activity PHBPU (Pharbitis purpureum): 100% | herbicidal activity SETVI (Setaria viridis [12]): 100% | Herbicidal activity STEME (Stellaria media [13]): 100% | herbicidal activity VIOTR (Viola tricolor [14]): 100% | Herbicidal activity ECHCG (ECHCG): 100%

CCn1nnnc1NC(=O)c1ccc(C(F)F)c(SC)c1Br [Example 2-61]
herbicidal activity ABUTH (Abutilon theophrasti [1]): 100% | herbicidal activity ALOMY (Alopecurus myosuroides [2]): 100% | herbicidal activity AMARE (Amaranthus retroflexus [3]): 100% | herbicidal activity AVEFA (Avena fatua [4]): 100% | herbicidal activity CYPES (Cyperus serotinus): 100% | herbicidal activity MATIN (Matricaria inodora): 100% | herbicidal activity SETVI (Setaria viridis [5]): 100% | Herbicidal activity STEME (Stellaria media [6]): 100% | herbicidal activity VIOTR (Viola tricolor [7]): 100% | herbicidal activity ABUTH (Abutilon theophrasti [8]): 100% | herbicidal activity ALOMY (Alopecurus myosuroides [9]): 90% | herbicidal activity AMARE (Amaranthus retroflexus [10]): 90% | herbicidal activity AVEFA (Avena fatua [11]): 90% | Herbicidal activity PHBPU (Pharbitis purpureum): 100% | herbicidal activity SETVI (Setaria viridis [12]): 90% | Herbicidal activity STEME (Stellaria media [13]): 100% | herbicidal activity VIOTR (Viola tricolor [14]): 100% | Herbicidal activity ECHCG (ECHCG): 90%

CCn1nnnc1NC(=O)c1ccc(C(F)F)c([S+](C)[O-])c1Br (stereo not drawn) [Example 2-62]
herbicidal activity ABUTH (Abutilon theophrasti [1]): 100% | herbicidal activity ALOMY (Alopecurus myosuroides [2]): 100% | herbicidal activity AMARE (Amaranthus retroflexus [3]): 100% | herbicidal activity AVEFA (Avena fatua [4]): 100% | herbicidal activity CYPES (Cyperus serotinus): 100% | herbicidal activity MATIN (Matricaria inodora): 100% | herbicidal activity SETVI (Setaria viridis [5]): 100% | Herbicidal activity STEME (Stellaria media [6]): 100% | herbicidal activity VIOTR (Viola tricolor [7]): 100% | herbicidal activity ABUTH (Abutilon theophrasti [8]): 100% | herbicidal activity ALOMY (Alopecurus myosuroides [9]): 90% | herbicidal activity AMARE (Amaranthus retroflexus [10]): 100% | herbicidal activity AVEFA (Avena fatua [11]): 100% | Herbicidal activity PHBPU (Pharbitis purpureum): 100% | herbicidal activity SETVI (Setaria viridis [12]): 100% | Herbicidal activity STEME (Stellaria media [13]): 100% | herbicidal activity VIOTR (Viola tricolor [14]): 100% | Herbicidal activity ECHCG (ECHCG): 100%

CCn1nnnc1NC(=O)c1ccc(C(F)F)c(S(C)(=O)=O)c1Br [Example 2-63]
herbicidal activity ABUTH (Abutilon theophrasti [1]): 100% | herbicidal activity ALOMY (Alopecurus myosuroides [2]): 100% | herbicidal activity AMARE (Amaranthus retroflexus [3]): 100% | herbicidal activity AVEFA (Avena fatua [4]): 100% | herbicidal activity CYPES (Cyperus serotinus): 90% | herbicidal activity MATIN (Matricaria inodora): 100% | herbicidal activity SETVI (Setaria viridis [5]): 100% | Herbicidal activity STEME (Stellaria media [6]): 100% | herbicidal activity VIOTR (Viola tricolor [7]): 100% | herbicidal activity ABUTH (Abutilon theophrasti [8]): 100% | herbicidal activity ALOMY (Alopecurus myosuroides [9]): 100% | herbicidal activity AMARE (Amaranthus retroflexus [10]): 100% | herbicidal activity AVEFA (Avena fatua [11]): 100% | Herbicidal activity PHBPU (Pharbitis purpureum): 100% | herbicidal activity SETVI (Setaria viridis [12]): 100% | Herbicidal activity STEME (Stellaria media [13]): 100% | herbicidal activity VIOTR (Viola tricolor [14]): 100% | Herbicidal activity ECHCG (ECHCG): 100%

CCSc1c(C(F)F)ccc(C(=O)Nc2nnnn2CC)c1Br [Example 2-64]
herbicidal activity ABUTH (Abutilon theophrasti [1]): 100% | herbicidal activity ALOMY (Alopecurus myosuroides [2]): 100% | herbicidal activity AMARE (Amaranthus retroflexus [3]): 100% | herbicidal activity AVEFA (Avena fatua [4]): 100% | herbicidal activity CYPES (Cyperus serotinus): 100% | herbicidal activity MATIN (Matricaria inodora): 100% | herbicidal activity SETVI (Setaria viridis [5]): 100% | Herbicidal activity STEME (Stellaria media [6]): 100% | herbicidal activity VIOTR (Viola tricolor [7]): 100% | herbicidal activity ABUTH (Abutilon theophrasti [8]): 100% | herbicidal activity ALOMY (Alopecurus myosuroides [9]): 100% | herbicidal activity AMARE (Amaranthus retroflexus [10]): 100% | herbicidal activity AVEFA (Avena fatua [11]): 100% | Herbicidal activity PHBPU (Pharbitis purpureum): 100% | herbicidal activity SETVI (Setaria viridis [12]): 100% | Herbicidal activity STEME (Stellaria media [13]): 100% | herbicidal activity VIOTR (Viola tricolor [14]): 100% | Herbicidal activity ECHCG (ECHCG): 100%
